Data on five compounds can be found in US20260176320A1, “MODULATORS OF G-PROTEIN COUPLED RECEPTORS” (priority 2018, published 2026).

Where two headings read alike, the source gives them in different places. Square brackets hold non-standard residues; d marks the D form. Peptide text beside a SMILES is read from it. * marks the point of attachment. X1 = O=C(CSCC(=O)*)NCCN1C(=O)c2ccccc2C1=O; X4 = CC(C)(C(=O)NCCN1C(=O)CSC1=O)C(=O)*; Aib = CC(C)(N)C(=O)O

What all share (assay type): cell-based
The target in assay [1] is T1, GLP-1R (Homo sapiens, UniProt P43220). The assay is described as follows: HitHunter cAMP assay (GLP-1R). The settings on record: for Emax: read-out: (Emax) GLP-1R. In outline:
(§1)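 Luminescent readout of cAMP by enzyme-fragment immunocompetition gave agonist concentration-response data. Cells (10,000/well) sat in HBSS buffer containing IBMX 625 μM, HEPES 10 mM and BSA 0.2%, exposed to agonist for 30 min at room temperature.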
A general note: Cyclic AMP is a second messenger, typically raised through Gs and lowered through Gi signalling.

In assay [2] the target is T2, GIP-R (Homo sapiens, UniProt P48546).
T2 sequence (P48546 22-466): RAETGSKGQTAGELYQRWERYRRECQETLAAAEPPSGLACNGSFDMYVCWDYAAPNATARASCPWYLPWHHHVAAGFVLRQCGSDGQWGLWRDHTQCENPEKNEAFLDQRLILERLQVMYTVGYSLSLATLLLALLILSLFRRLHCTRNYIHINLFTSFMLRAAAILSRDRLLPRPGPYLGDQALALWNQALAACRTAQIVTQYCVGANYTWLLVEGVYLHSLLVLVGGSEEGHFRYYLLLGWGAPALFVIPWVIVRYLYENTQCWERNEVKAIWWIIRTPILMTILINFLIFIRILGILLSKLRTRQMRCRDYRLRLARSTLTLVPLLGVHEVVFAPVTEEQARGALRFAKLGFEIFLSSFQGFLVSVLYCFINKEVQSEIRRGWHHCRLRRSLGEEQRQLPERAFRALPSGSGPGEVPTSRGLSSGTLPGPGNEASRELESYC
The assay is described as follows: HitHunter cAMP assay (GIP-R). The settings on record: for Emax: read-out: (Emax) GIP-R. In outline:
as §1

Assay [3] concerns the target T1, GLP-1R. The assay is described as follows: PathHunter β-arrestin assay. The essentials: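 Overnight-plated cells; 0.2% BSA medium; agonist 22-pt 2× dilution series, duplicate; 90 min, 37 °C/5% CO2; detection reagent 3 h RT, dark; luminescence.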
[4] abbreviates: Table 3, cAMP, read-out: EC50 GLP-1R/nM.
Setting [5] is: Table 3A, cAMP, read-out: EC50 GLP-1R/nM.
Where [6] appears, read: Table 3, cAMP, read-out: EC50 GIP-R/nM.
The mark [7] stands for this setting: Table 3A, cAMP, read-out: EC50 GIP-R/nM.
[8] abbreviates: PathHunter β-arrestin assay, read-out: β-arrestin activity EC50.

T1 sequence (P43220 24-463): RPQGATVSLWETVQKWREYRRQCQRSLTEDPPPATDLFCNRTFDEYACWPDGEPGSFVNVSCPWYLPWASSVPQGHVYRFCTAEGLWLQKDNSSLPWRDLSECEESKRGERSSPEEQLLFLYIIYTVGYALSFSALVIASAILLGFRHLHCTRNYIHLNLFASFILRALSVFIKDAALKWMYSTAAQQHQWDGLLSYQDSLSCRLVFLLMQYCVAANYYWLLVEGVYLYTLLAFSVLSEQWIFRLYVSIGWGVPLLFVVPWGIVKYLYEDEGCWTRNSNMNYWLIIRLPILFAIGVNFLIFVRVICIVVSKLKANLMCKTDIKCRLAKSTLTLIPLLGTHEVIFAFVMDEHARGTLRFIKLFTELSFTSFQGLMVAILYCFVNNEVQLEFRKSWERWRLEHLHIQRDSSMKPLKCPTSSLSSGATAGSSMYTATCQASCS

The term Emax denotes the greatest response seen or fitted, relative to the assay's reference. As for `CC[C@H](C)[C@H](NC(=O)[C@H](CO)NC(=O)[C@H](Cc1ccc(O)cc1)NC(=O)[C@H](CC(=O)O)NC(=O)[C@H](CO)NC(=O)[C@@H](NC(=O)[C@H](Cc1ccccc1)NC(=O)[C@@H](NC(=O)CNC(=O)[C@H](CCC(=O)O)NC(=O)C(C)(C)NC(=O)CCN1C(=O)CSC1=O)[C@@H](C)O)[C@@H](C)O)C(=O)N[C@@H](Cc1ccc(O)cc1)C(=O)N[C@@H](CC(C)C)C(=O)N[C@@H](CC(=O)O)C(=O)N[C@@H](CCCCN)C(=O)N[C@@H](CCC(N)=O)C(=O)N[C@@H](C)C(=O)N[C@@H](C)C(=O)NC(C)(C)C(=O)N[C@@H](CCC(=O)O)C(=O)N[C@@H](Cc1ccccc1)C(=O)N[C@H](C(=O)N[C@@H](CC(N)=O)C(=O)N[C@@H](Cc1c[nH]c2ccccc12)C(=O)N[C@@H](CC(C)C)C(=O)N[C@@H](CC(C)C)C(=O)N[C@@H](C)C(=O)NCC(=O)NCC(=O)N1CCC[C@H]1C(=O)N[C@@H](CO)C(=O)N[C@@H](CO)C(=O)NCC(=O)N[C@@H](C)C(=O)N1CCC[C@H]1C(=O)N1CCC[C@H]1C(=O)N1CCC[C@H]1C(=O)N[C@@H](CO)C(=O)N[C@@H](CCCCN)C(N)=O)C(C)C` [Compound 130], the Emax in assay [1] (Table 3, cAMP) is 114%; in assay [1] (Table 3A, cAMP), 114%; in assay [2] (Table 3, cAMP) it was 64%; in assay [2] (Table 3A, cAMP), 64%. For the same compound, the EC50 in assay [1] (setting [4]) was 0.1 to 1 nM; in assay [1] (setting [5]) it was 0.1 to 1 nM; in assay [2] (setting [6]), 1 to 10 nM; in assay [2] (setting [7]), 1 to 10 nM; in assay [3] (setting [8]), greater than 1000 nM.

For `CC[C@H](C)[C@H](NC(=O)[C@H](CO)NC(=O)[C@H](Cc1ccc(O)cc1)NC(=O)[C@H](CC(=O)O)NC(=O)[C@H](CO)NC(=O)[C@@H](NC(=O)[C@H](Cc1ccccc1)NC(=O)[C@@H](NC(=O)CNC(=O)[C@H](CCC(=O)O)NC(=O)C(C)(C)C(=O)NCCN1C(=O)CSC1=O)[C@@H](C)O)[C@@H](C)O)C(=O)N[C@@H](Cc1ccc(O)cc1)C(=O)N[C@@H](CC(C)C)C(=O)N[C@@H](CC(=O)O)C(=O)N[C@@H](CCCCN)C(=O)N[C@@H](CCC(N)=O)C(=O)N[C@@H](C)C(=O)N[C@H](C(=O)NC(C)(C)C(=O)N[C@@H](CCC(=O)O)C(=O)N[C@@H](Cc1ccccc1)C(=O)N[C@H](C(=O)N[C@@H](CC(N)=O)C(=O)N[C@@H](Cc1c[nH]c2ccccc12)C(=O)N[C@@H](CC(C)C)C(=O)N[C@@H](CC(C)C)C(=O)N[C@@H](C)C(=O)NCC(=O)NCC(=O)N1CCC[C@H]1C(=O)N[C@@H](CO)C(=O)N[C@@H](CO)C(=O)NCC(=O)N[C@@H](C)C(=O)N1CCC[C@H]1C(=O)N1CCC[C@H]1C(=O)N1CCC[C@H]1C(=O)N[C@@H](CO)C(=O)N[C@@H](CCCCN)C(N)=O)[C@@H](C)CC)C(C)C` [Compound 132] (X4-EGTFTSDYSIYLDKQAV[Aib]EFINWLLAGGPSSGAPPPSK-NH2), the Emax lay within 103 to 114% in assay [1] (Table 3, cAMP); 103 to 114% in assay [1] (Table 3A, cAMP); 61 to 64% in assay [2] (Table 3, cAMP); 61 to 64% in assay [2] (Table 3A, cAMP). Further, the EC50 in assay [1] (setting [4]) was less than 0.1 nM; in assay [1] (setting [5]) it was less than 0.1 nM; in assay [2] (setting [6]), 1 to 10 nM; in assay [2] (setting [7]), 1 to 10 nM; in assay [3] (setting [8]), 10 to 1000 nM.

Consider `CC[C@H](C)[C@H](NC(=O)[C@H](CO)NC(=O)[C@H](Cc1ccc(O)cc1)NC(=O)[C@H](CC(=O)O)NC(=O)[C@H](CO)NC(=O)[C@@H](NC(=O)[C@H](Cc1ccccc1)NC(=O)[C@@H](NC(=O)CNC(=O)[C@H](CCC(=O)O)NC(=O)CSCC(=O)NCCN1C(=O)c2ccccc2C1=O)[C@@H](C)O)[C@@H](C)O)C(=O)N[C@@H](Cc1ccc(O)cc1)C(=O)N[C@@H](CC(C)C)C(=O)N[C@@H](CC(=O)O)C(=O)N[C@@H](CCCCN)C(=O)N[C@@H](CCC(N)=O)C(=O)N[C@@H](C)C(=O)N[C@H](C(=O)NC(C)(C)C(=O)N[C@@H](CCC(=O)O)C(=O)N[C@@H](Cc1ccccc1)C(=O)N[C@H](C(=O)N[C@@H](CC(N)=O)C(=O)N[C@@H](Cc1c[nH]c2ccccc12)C(=O)N[C@@H](CC(C)C)C(=O)N[C@@H](CC(C)C)C(=O)N[C@@H](C)C(=O)NCC(=O)NCC(=O)N1CCC[C@H]1C(=O)N[C@@H](CO)C(=O)N[C@@H](CO)C(=O)NCC(=O)N[C@@H](C)C(=O)N1CCC[C@H]1C(=O)N1CCC[C@H]1C(=O)N1CCC[C@H]1C(=O)N[C@@H](CO)C(=O)N[C@@H](CCCCN)C(N)=O)[C@@H](C)CC)C(C)C` [Compound 133] (X1-EGTFTSDYSIYLDKQAV[Aib]EFINWLLAGGPSSGAPPPSK-NH2), for which the EC50 in assay [1] (EC50 GLP-1R/nM, Table 3, cAMP) was 1 to 10 nM; in assay [1] (EC50 GLP-1R/nM, Table 3A, cAMP) it was 1 to 10 nM; in assay [2] (EC50 GIP-R/nM, Table 3, cAMP), 0.1 to 1 nM; in assay [2] (EC50 GIP-R/nM, Table 3A, cAMP), 0.1 to 1 nM; in assay [3], greater than 1000 nM. The Emax in assay [1] (Table 3, cAMP) was 98%; in assay [1] (Table 3A, cAMP), 98%; in assay [2] (Table 3, cAMP) it was 104%; in assay [2] (Table 3A, cAMP), 104%.

With `CC[C@H](C)[C@H](NC(=O)[C@H](CO)NC(=O)[C@H](Cc1ccc(O)cc1)NC(=O)[C@H](CC(=O)O)NC(=O)[C@H](CO)NC(=O)[C@@H](NC(=O)[C@H](Cc1ccccc1)NC(=O)[C@@H](NC(=O)CNC(=O)[C@H](CCC(=O)O)NC(=O)C1(C(=O)NCCN2C(=O)CSC2=O)CCC1)[C@@H](C)O)[C@@H](C)O)C(=O)N[C@@H](Cc1ccc(O)cc1)C(=O)N[C@@H](CC(C)C)C(=O)N[C@@H](CC(=O)O)C(=O)N[C@@H](CCCCN)C(=O)N[C@@H](CCC(N)=O)C(=O)N[C@@H](C)C(=O)N[C@@H](C)C(=O)NC(C)(C)C(=O)N[C@@H](CCC(=O)O)C(=O)N[C@@H](Cc1ccccc1)C(=O)N[C@H](C(=O)N[C@@H](CC(N)=O)C(=O)N[C@@H](Cc1c[nH]c2ccccc12)C(=O)N[C@@H](CC(C)C)C(=O)N[C@@H](CC(C)C)C(=O)N[C@@H](C)C(=O)NCC(=O)NCC(=O)N1CCC[C@H]1C(=O)N[C@@H](CO)C(=O)N[C@@H](CO)C(=O)NCC(=O)N[C@@H](C)C(=O)N1CCC[C@H]1C(=O)N1CCC[C@H]1C(=O)N1CCC[C@H]1C(=O)N[C@@H](CO)C(=O)N[C@@H](CCCCN)C(N)=O)C(C)C` [Compound 134], the EC50 is less than 0.1 nM in assay [1]; less than 0.1 nM in assay [1] (read-out: EC50 GLP-1R/nM, Table 3A, cAMP); 10 to 100 nM in assay [2] (EC50 GIP-R/nM, Table 3, cAMP); 10 to 100 nM in assay [2] (EC50 GIP-R/nM, Table 3A, cAMP); 10 to 1000 nM in assay [3]. Moreover, in assay [1] (Table 3A, cAMP), the “(Emax) GLP-1R” value is 103-108%. In addition, the Emax was 103 to 108% in assay [1] and 30% in assay [2].

Regarding `CC[C@H](C)[C@H](NC(=O)[C@H](CO)NC(=O)[C@H](Cc1ccc(O)cc1)NC(=O)[C@H](CC(=O)O)NC(=O)[C@H](CO)NC(=O)[C@@H](NC(=O)[C@H](Cc1ccccc1)NC(=O)[C@@H](NC(=O)CNC(=O)[C@H](CCC(=O)O)NC(=O)C1(C(=O)NCCN2C(=O)CSC2=O)CC1)[C@@H](C)O)[C@@H](C)O)C(=O)N[C@@H](Cc1ccc(O)cc1)C(=O)N[C@@H](CC(C)C)C(=O)N[C@@H](CC(=O)O)C(=O)N[C@@H](CCCCN)C(=O)N[C@@H](CCC(N)=O)C(=O)N[C@@H](C)C(=O)N[C@@H](C)C(=O)NC(C)(C)C(=O)N[C@@H](CCC(=O)O)C(=O)N[C@@H](Cc1ccccc1)C(=O)N[C@H](C(=O)N[C@@H](CC(N)=O)C(=O)N[C@@H](Cc1c[nH]c2ccccc12)C(=O)N[C@@H](CC(C)C)C(=O)N[C@@H](CC(C)C)C(=O)N[C@@H](C)C(=O)NCC(=O)NCC(=O)N1CCC[C@H]1C(=O)N[C@@H](CO)C(=O)N[C@@H](CO)C(=O)NCC(=O)N[C@@H](C)C(=O)N1CCC[C@H]1C(=O)N1CCC[C@H]1C(=O)N1CCC[C@H]1C(=O)N[C@@H](CO)C(=O)N[C@@H](CCCCN)C(N)=O)C(C)C` [Compound 135], the Emax in assay [1] (Table 3, cAMP) was 106 to 111%; in assay [1] (Table 3A, cAMP) it was 106 to 111%; in assay [2] (Table 3, cAMP) it was 15 to 22%; in assay [2] (Table 3A, cAMP), 15 to 22%. Besides, the EC50 is less than 1 nM in assay [1] (setting [4]); less than 1 nM in assay [1] (setting [5]); 10 to 100 nM in assay [2] (setting [6]); 10 to 1000 nM in assay [2] (setting [7]); greater than 1000 nM in assay [3] (setting [8]).
